Measurements: ChEMBL document CHEMBL4765482, “Novel Sigma 1 Receptor Antagonists as Potential Therapeutics for Pain Management” (J Med Chem, 2021)

Key:
[1] = target: T1, Sigma intracellular receptor 2 (Homo sapiens, UniProt Q5BJF2); assay: Displacement of [3H]-DTG from sigma-2 receptor in human Jurkat cell membrane incubated for 1 hr by liquid scintillation counting method; format: cell membranes
[2] = target: T2, Sigma non-opioid intracellular receptor 1 (Homo sapiens, UniProt Q99720); assay: Displacement of [3H]-pentazocine from sigma-1 receptor in human Jurkat cell membrane at 100 nM incubated for 2 hr by liquid scintillation counting method relative to control; format: cell membranes
[3] = target: T3, Sigma non-opioid intracellular receptor 1 (Cavia porcellus, UniProt Q60492); assay: Displacement of [3H]-(+)-pentazocine from sigma-1 receptor in guinea pig brain membranes incubated for 1 hr by liquid scintillation counting method; format: cell membranes, Membrane
[4] = target: T2, Sigma non-opioid intracellular receptor 1; assay: Displacement of [3H]-pentazocine from sigma-1 receptor in human Jurkat cell membrane incubated for 2 hr by liquid scintillation counting method; format: cell membranes
[5] = Displacement of [3H]-DTG from sigma-2 receptor in guinea pig brain membrane incubated for 1 hr by liquid scintillation counting method; format: cell membranes, Cavia porcellus
[6] = Intrinsic clearance in rat liver microsomes at 10 uM incubated for 1 hr in presence of NADPH by LC-MS/MS analysis; format: ADME, Microsome; conditions: read-out: CLH
[7] = Intrinsic clearance in human liver microsomes at 10 uM incubated for 1 hr in presence of NADPH by LC-MS/MS analysis; format: ADME, Microsome; conditions: read-out: CLH
[8] = Metabolic stability in rat liver microsomes assessed as half-life at 10 uM incubated for 1 hr in presence of NADPH by LC-MS/MS analysis; format: ADME, Microsome
[9] = Metabolic stability in human liver microsomes assessed as half-life at 10 uM incubated for 1 hr in presence of NADPH by LC-MS/MS analysis; format: ADME, Microsome
[10] = target: T1, Sigma intracellular receptor 2; assay: Displacement of [3H]-DTG from sigma-2 receptor in human Jurkat cell membrane at 1000 nM incubated for 1 hr by liquid scintillation counting method relative to control; format: cell membranes; conditions: filed as antagonist
[11] = target: T3, Sigma non-opioid intracellular receptor 1
[12] = target: Sigma non-opioid intracellular receptor 1 (Cavia porcellus) (UniProt Q60492); assay: Ratio of Ki for displacement of [3H]-(+)-pentazocine from sigma-1 receptor to Ki for displacement of [3H]-(+)-pentazocine from sigma-1 receptor in guinea pig brain membranes in presence of phenytoin; format: cell membranes; conditions: Membrane
Chain of Sigma non-opioid intracellular receptor 1 (Cavia porcellus) (Q60492 whole entry): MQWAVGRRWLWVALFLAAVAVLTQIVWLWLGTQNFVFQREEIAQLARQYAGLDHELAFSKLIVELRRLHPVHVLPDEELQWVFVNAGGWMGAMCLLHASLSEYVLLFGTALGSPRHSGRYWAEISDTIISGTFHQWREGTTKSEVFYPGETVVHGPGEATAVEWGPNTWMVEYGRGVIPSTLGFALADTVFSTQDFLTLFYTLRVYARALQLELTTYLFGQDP

T2 sequence (Q99720 whole entry): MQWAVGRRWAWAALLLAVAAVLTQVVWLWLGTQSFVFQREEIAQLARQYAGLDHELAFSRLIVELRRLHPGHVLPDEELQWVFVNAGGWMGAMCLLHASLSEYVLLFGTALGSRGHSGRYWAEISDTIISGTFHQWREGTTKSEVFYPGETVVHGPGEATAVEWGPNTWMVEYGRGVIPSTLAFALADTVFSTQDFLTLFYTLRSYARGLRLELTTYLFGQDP
T3 sequence (Q60492 whole entry): as the sequence (Q60492 whole entry) above
T1 sequence (Q5BJF2 whole entry): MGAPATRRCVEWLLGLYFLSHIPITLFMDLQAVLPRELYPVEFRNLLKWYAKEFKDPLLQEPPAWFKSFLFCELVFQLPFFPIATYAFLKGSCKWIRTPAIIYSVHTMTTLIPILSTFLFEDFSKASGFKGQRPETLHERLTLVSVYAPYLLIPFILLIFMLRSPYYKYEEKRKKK

Structure (SMILES): Cn1nc(CN2CCCC2)nc1-c1ccc(C2CC2)cc1
- Ki [1]: 1000 nM
- Activity [2]: 30%

Structure (SMILES): Cn1nc(CN2CCN(CCc3ccccc3)CC2)nc1-c1ccc(C(C)(C)C)cc1
- Ki [1]: 17 nM
- Ki [3]: 10 nM
- Ki [4]: 49 nM
- Ki [5]: 14 nM

Structure (SMILES): Cn1nc(CN2CCN(Cc3ccccc3)CC2)nc1-c1ccc(C(C)(C)C)cc1
- Ki [5]: 39 nM

Structure (SMILES): Cc1ncc2n1-c1ccc(Cl)cc1C(c1ccccc1F)=NC2 [MIDAZOLAM]
- microsomal CLint at 10 µM [6]: 293 µL/min/mg
- microsomal CLint at 10 µM [7]: 263 µL/min/mg
- half-life at 10 µM [8]: 2.4 min
- half-life at 10 µM [9]: 2.6 min

Structure (SMILES): Cn1nc(CN2CCCCC2)nc1-c1ccc(C(C)(C)C)cc1
- Ki [5]: 441 nM

Structure (SMILES): Cn1nc(CN2CCC(Cc3ccccc3)CC2)nc1-c1ccc(C(C)(C)C)cc1
- Ki [5]: 57 nM

Structure (SMILES): O=C(O)Cc1ccccc1Nc1c(Cl)cccc1Cl [DICLOFENAC]
- microsomal CLint at 10 µM [6]: 196 µL/min/mg
- microsomal CLint at 10 µM [7]: 189 µL/min/mg

Structure (SMILES): Cn1nc(CN2CCCC2)nc1-c1ccc(Cl)cc1
- Ki [1]: > 1000 nM
- Activity [2]: 31%

Structure (SMILES): Cc1cc(-c2nc(CN3CCCC3)nn2C)ccc1C(F)(F)F
- microsomal CLint at 10 µM [6]: 263 µL/min/mg
- microsomal CLint at 10 µM [7]: 9.3 µL/min/mg
- half-life at 10 µM [8]: 2.6 min
- half-life at 10 µM [9]: 74.9 min

Structure (SMILES): Cn1nc(CN2CCCC2)nc1-c1ccc(-c2ccccc2)cc1
- Activity [10]: 60%
- Ki [4]: 90 nM

Structure (SMILES): Cn1nc(CN2CCCC2)nc1-c1ccc(Cl)c(Cl)c1
- microsomal CLint at 10 µM [6]: 135 µL/min/mg
- microsomal CLint at 10 µM [7]: 8.2 µL/min/mg
- half-life at 10 µM [8]: 5.1 min
- half-life at 10 µM [9]: 84.7 min

Structure (SMILES): Cn1nc(CN2CCCC2)nc1-c1ccc(C(F)(F)F)cc1
- Ki [1]: > 1000 nM
- Ki [4]: 82 nM

Structure (SMILES): O=C(CCCN1CCC(O)(c2ccc(Cl)cc2)CC1)c1ccc(F)cc1 [HALOPERIDOL]
- Ki [5]: 4.7 nM

Structure (SMILES): Cn1nc(CN2CCCC2)nc1-c1ccc(-c2ccc(Cl)c(Cl)c2)c(Cl)c1
- Activity ([2]; filed as antagonist): 43%
- Activity [10]: 79%

Structure (SMILES): CN1CCN(Cc2nc(-c3ccc(C(C)(C)C)cc3)n(C)n2)CC1
- Ki [5]: > 1000 nM

Structure (SMILES): Cn1nc(CN2CCOCC2)nc1-c1ccc(C(C)(C)C)cc1
- Ki [5]: > 1000 nM

Structure (SMILES): Cn1nc(CN2CCCC2)nc1-c1cccc(C(C)(C)C)c1
- Ki [1]: 1000 nM
- Ki [4]: 29 nM

Structure (SMILES): COc1ccc2c(c1)[C@]13CCCC[C@@H]1[C@H](C2)N(C)CC3 [DEXTROMETHORPHAN]
- Ki [3]: 63 nM
- Ki [11]: 10 nM
- Ratio Ki [12]: 6.3
